Reference: patent publication US20040220148A1, “5-Membered ring heterocycles as inhibitors of leucocyte adhesion and as VLA-4 antagonists” (Aventis Pharma Deutschland GmbH, priority 1996, published 2004)
Structures can show the parent of a compound that is named as a salt.

molecular target: T1, VLA-4 integrins on human U937 cells (interaction between VCAM-1 and VLA-4) (Homo sapiens, UniProt P05556+P13612); assay: U937/VCAM-1 cell adhesion test (adhesion of U937 cells to hVCAM-1(1-3)-IgG); format: cell-based; conditions: concentration leading to 50% inhibition of adhesion
T1 construct: the VLA-4 integrins, are offered in their natural form as surface molecules on human U937 cells; host or cells: U937 cells (VLA-4, endogenous); the partner hVCAM-1(1-3)-IgG came from the supernatant of transfected COS cells (ATCC CRL1651)
T1 sequence (P13612 34-1032): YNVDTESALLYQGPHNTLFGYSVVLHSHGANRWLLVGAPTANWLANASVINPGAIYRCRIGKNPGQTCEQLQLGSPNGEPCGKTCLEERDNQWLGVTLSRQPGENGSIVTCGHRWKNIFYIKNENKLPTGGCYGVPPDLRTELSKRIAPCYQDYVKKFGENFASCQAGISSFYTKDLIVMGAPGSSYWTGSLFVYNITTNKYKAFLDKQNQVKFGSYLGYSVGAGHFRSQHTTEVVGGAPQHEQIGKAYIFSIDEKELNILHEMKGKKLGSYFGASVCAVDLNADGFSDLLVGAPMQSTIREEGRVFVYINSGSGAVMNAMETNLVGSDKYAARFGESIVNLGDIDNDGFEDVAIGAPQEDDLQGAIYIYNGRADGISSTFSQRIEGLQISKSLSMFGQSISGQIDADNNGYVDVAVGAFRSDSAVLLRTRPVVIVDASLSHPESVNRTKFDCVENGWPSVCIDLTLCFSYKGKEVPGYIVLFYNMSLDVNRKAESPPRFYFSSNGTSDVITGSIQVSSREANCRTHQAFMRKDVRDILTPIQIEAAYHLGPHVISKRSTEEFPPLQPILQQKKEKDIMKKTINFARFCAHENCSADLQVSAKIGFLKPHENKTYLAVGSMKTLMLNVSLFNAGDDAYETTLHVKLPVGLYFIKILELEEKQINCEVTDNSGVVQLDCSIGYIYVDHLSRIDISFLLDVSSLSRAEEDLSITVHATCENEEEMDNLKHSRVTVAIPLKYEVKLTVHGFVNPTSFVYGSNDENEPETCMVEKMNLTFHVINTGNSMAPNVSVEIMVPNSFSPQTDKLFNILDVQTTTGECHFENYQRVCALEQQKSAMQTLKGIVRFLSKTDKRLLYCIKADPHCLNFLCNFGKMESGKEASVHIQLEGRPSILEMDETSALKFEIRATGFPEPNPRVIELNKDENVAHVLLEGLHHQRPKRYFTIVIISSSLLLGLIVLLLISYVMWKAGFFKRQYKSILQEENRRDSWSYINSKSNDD
T1 sequence (P05556 21-798): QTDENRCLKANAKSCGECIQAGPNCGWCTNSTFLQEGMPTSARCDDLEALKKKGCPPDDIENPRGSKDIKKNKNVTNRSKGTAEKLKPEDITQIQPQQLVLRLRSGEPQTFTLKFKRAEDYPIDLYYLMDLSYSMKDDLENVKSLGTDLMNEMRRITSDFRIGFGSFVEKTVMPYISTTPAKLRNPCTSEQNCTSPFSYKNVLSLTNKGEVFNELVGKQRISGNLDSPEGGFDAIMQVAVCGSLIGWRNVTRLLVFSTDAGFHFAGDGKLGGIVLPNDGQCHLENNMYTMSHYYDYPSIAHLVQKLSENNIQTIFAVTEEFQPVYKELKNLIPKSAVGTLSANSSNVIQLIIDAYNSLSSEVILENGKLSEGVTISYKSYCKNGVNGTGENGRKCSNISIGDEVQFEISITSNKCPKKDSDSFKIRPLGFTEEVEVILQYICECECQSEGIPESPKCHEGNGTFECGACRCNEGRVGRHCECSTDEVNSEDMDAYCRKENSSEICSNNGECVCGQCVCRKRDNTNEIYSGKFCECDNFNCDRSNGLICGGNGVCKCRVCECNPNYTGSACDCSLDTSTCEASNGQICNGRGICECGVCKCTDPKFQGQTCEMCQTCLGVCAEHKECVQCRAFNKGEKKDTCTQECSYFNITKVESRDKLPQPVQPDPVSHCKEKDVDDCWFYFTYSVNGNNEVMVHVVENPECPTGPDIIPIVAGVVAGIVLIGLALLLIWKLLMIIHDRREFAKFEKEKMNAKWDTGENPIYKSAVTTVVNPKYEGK
From the text: As a test method for the activity of the compounds of the formula I on the interaction between VCAM-1 and VLA-4, an assay which is specific for this interaction is used. The cellular binding components, i.e. the VLA-4 integrins, are offered in their natural form as surface molecules on human U937 cells (ATCC CRL 1593) which belong to the group of leucocytes. As specific binding components, recombinant soluble fusion proteins prepared by genetic engineering and consisting of the extracytoplasmic domains of human VCAM-1 and the constant region of a human immunoglobulin of the subclass IgG1 are used.
Assay for the Measurement of the Adhesion of U937 Cells (ATCC CRL 1593) to hVCAM-1 (1-3)-IgG
1. Preparation of Human VCAM-1(1-3)-IgG and Human CD4-IgG
A genetic construct for the expression of the extracellular domains of human VCAM-1 was employed, associated with the genetic sequence of the heavy chain of human immunoglobulin IgG1 (hinge, CH2 and CH3 regions), from Dr. Brian Seed, Massachusetts General Hospital, Boston, USA. The soluble fusion protein hVCAM-1(1-3)-IgG contained the three amino-terminal extracellular immunoglobulin-like domains of human VCAM-1 (Damle and Aruffo, Proc. Natl. Acad. Sci. USA 1991, 88, 6403). CD4-IgG (Zettlmeissl et al, DNA and Cell Biology 1990, 9, 347) served as a fusion protein for negative controls. The recombinant proteins were expressed as soluble proteins after DEAE/dextran-mediated DNA-transfection in COS cells (ATCC CRL1651) according to standard procedures (Ausubel et al., Current protocols in molecular biology, John Wiley & Sons, Inc., 1994).
2. Assay for Measurement of the Adhesion of U937 Cells to hVCAM-1(1-3)-IgG
2.1 96-well microtiter test plates (Nunc Maxisorb) were incubated at room temperature for 1 hour with 100 μl/well of a goat-anti-human IgG antibody solution (10 μg/ml in 50 mM tris, pH 9.5). After removing the antibody solution, washing was carried out once with PBS.
2.2 150 μl/well of a blocking buffer (1% BSA in PBS) were incubated on the plates at room temperature for 0.5 hours. After removing the blocking buffer, washing was carried out once with PBS.
2.3 100 μl per well of a cell culture supernatant of transfected COS cells were incubated on the plates at room temperature for 1.5 hours. The COS cells were transfected with a plasmid which codes for the three N-terminal immunoglobulin-like domains of VCAM-1, coupled to the Fc part of human IgG1 (hVCAM-1(1-3)-IgG). The content of hVCAM-1 (1-3)-IgG was about […]. After removing the culture supernatant, washing was carried out once with PBS.
2.4 The plates were incubated at room temperature for 20 minutes with […] of Fc receptor blocking buffer (1 mg/ml of γ-globulin, 100 mM NaCl, 100 μM MgCl2, 100 μM MnCl2, 100 μM CaCl2, 1 mg/ml BSA in 50 mM HEPES, pH 7.5). After removing the Fc receptor blocking buffer, washing was carried out once with PBS.
2.5 20 μl of binding buffer (100 mM NaCl, 100 μM MgCl2, 100 μM MgCl2, 100 μM CaCl2, 1 mg/ml BSA in 50 mM HEPES, pH 7.5), were initially introduced, the substances to be tested were added in 10 μl of binding buffer and the mixture was incubated for 20 minutes. As controls, antibodies against VCAM-1 (BBT, No. BBA6) and against VLA-4
(Immunotech, No. 0764) were used.
2.6 U937 cells were incubated in Fc receptor blocking buffer for 20 minutes and then pipetted in at a concentration of 1×10^6/ml and in an amount of 100 μl per well ([…]).
2.7 The plates were slowly immersed at an angle of 45° in stop buffer (100 mM NaCl, 100 μM MgCl2, 100 μM MnCl2, 100 μM CaCl2 in 25 mM Tris, pH 7.5) and shaken off. The process was repeated.
2.8 50 μl/well of a dye solution (16.7 μg/ml of Hoechst dye 33258, 4% formaldehyde, 0.5% Triton X-100 in PBS) were then incubated on the plates for 15 minutes.
2.9 The plates were shaken off and slowly immersed at an angle of 45° in stop buffer (100 mM NaCl, 100 μM MgCl2, 100 μM MnCl2, 100 μM CaCl2 in 25 mM Tris, pH 7.5). The process was repeated. […]

| SMILES | IC50 |
| --- | --- |
| CC(C)(C)c1ccc(CN2C(=O)N(CC(=O)N[C@@H](CC(=O)O)C(=O)N[C@H](C(=O)O)c3ccccc3)C(=O)C2(C)c2ccc(C(=N)N)cc2)cc1 (mixture of isomers) [Example 5, ((R,S)-4-(4-(Amino-imino-methyl)phenyl)-3-(4-tert-butyl-benzyl)-4-methyl-2,5-dioxoimidazolidin-1-yl)acetyl-L-aspartyl-L-phenylglycine] | 15 µM |
| CC1(c2ccc(C(=N)N)cc2)C(=O)N(CC(=O)N[C@@H](CC(=O)O)C(=O)N[C@H](C(=O)O)c2ccccc2)C(=O)N1Cc1c(F)c(F)c(F)c(F)c1F (mixture of isomers) [Example 6, ((R,S)-4-(4-(Amino-imino-methyl)phenyl)-3-(2,3,4,5,6-pentafluorobenzyl)-4-methyl-2,5-dioxoimidazolidin-1-yl)acetyl-L-aspartyl-L-phenylglycine] | 65 µM |
| CC1(c2ccc(C(=N)N)cc2)C(=O)N(CC(=O)N[C@@H](CC(=O)O)C(=O)N[C@H](C(=O)O)c2ccccc2)C(=O)N1Cc1ccc([N+](=O)[O-])cc1 (mixture of isomers) [Example 7, ((R,S)-4-(4-(Amino-imino-methyl)phenyl)-3-(4-nitrobenzyl)-4-methyl-2,5-dioxoimidazolidin-1-yl)acetyl-L-aspartyl-L-phenylglycine] | 25 µM |
| Cc1cc(C)cc(CN2C(=O)N(CC(=O)N[C@@H](CC(=O)O)C(=O)N[C@H](C(=O)O)c3ccccc3)C(=O)C2(C)c2ccc(C(=N)N)cc2)c1 (mixture of isomers) [Example 8, ((R,S)-4-(4-(Amino-imino-methyl)phenyl)-3-(3,5-dimethylbenzyl)-4-methyl-2,5-dioxoimidazolidin-1-yl)acetyl-L-aspartyl-L-phenylglycine] | 3.5 µM |
| CC1(c2ccc(C(=N)N)cc2)C(=O)N(CC(=O)N[C@@H](CC(=O)O)C(=O)N[C@H](C(=O)O)c2ccccc2)C(=O)N1Cc1ccccc1CS(=O)(=O)c1ccccc1 (mixture of isomers) [Example 10] | 47 µM |
| CC1(c2ccc(C(=N)N)cc2)C(=O)N(CC(=O)N[C@@H](CC(=O)O)C(=O)N[C@H](C(=O)O)c2ccccc2)C(=O)N1Cc1ccccc1-c1ccccc1 (mixture of isomers) [Example 11, ((R,S)-4-(4-(Amino-imino-methyl)phenyl)-3-((2-biphenylyl)methyl)-4-methyl-2,5-dioxoimidazolidin-1-yl)acetyl-L-aspartyl-L-phenylglycine] | 62 µM |
| CC1(c2ccc(C(=N)N)cc2)NC(=O)N(CC(=O)N[C@@H](CC(=O)O)C(=O)N[C@H](C(=O)O)c2ccccc2)C1=O (stereo partly drawn) [Example 1, ((R,S)-4-(4-(Amino-imino-methyl)phenyl)-4-methyl-2,5-dioxoimidazolidin-1-yl)acetyl-L-aspartyl-L-phenylglycine] | 140 µM |
| CN1C(=O)N(CC(=O)N[C@@H](CC(=O)O)C(=O)N[C@H](C(=O)O)c2ccccc2)C(=O)C1(C)c1ccc(C(=N)N)cc1 (stereo partly drawn) [Example 2, ((R,S)-4-(4-(Amino-imino-methyl)phenyl)-3,4-dimethyl-2,5-dioxo-imidazolidin-1-yl)acetyl-L-aspartyl-L-phenylglycine] | 15 µM |

Other lines, results leading:

| IC50 | SMILES |
| --- | --- |
| 2.7 µM | Cc1ccc(CN2C(=O)N(CC(=O)N[C@@H](CC(=O)O)C(=O)N[C@H](C(=O)O)c3ccccc3)C(=O)C2(C)c2ccc(C(=N)N)cc2)cc1 (mixture of isomers) [Example 12, ((R,S)-4-(4-(Amino-imino-methyl)phenyl)-3-(4-methylbenzyl)-4-methyl-2,5-dioxoimidazolidin-1-yl)acetyl-L-aspartyl-L-phenylglycine] |
| 3.7 µM | CC1(c2ccc(C(=N)N)cc2)C(=O)N(CC(=O)N[C@@H](CC(=O)O)C(=O)N[C@H](C(=O)O)c2ccccc2)C(=O)N1Cc1cccc2ccccc12 (mixture of isomers) [Example 13, ((R,S)-4-(4-(Amino-imino-methyl)phenyl)-3-((1-naphthyl)methyl)-4-methyl-2,5-dioxoimidazolidin-1-yl)acetyl-L-aspartyl-L-phenylglycine] |
| 0.25 µM | CC1(c2ccc(C(=N)N)cc2)C(=O)N(CC(=O)N[C@@H](CC(=O)O)C(=O)N[C@H](C(=O)O)c2ccccc2)C(=O)N1Cc1ccc(-c2ccccc2)cc1 (mixture of isomers) [Example 14, ((R,S)-4-(4-(Amino-imino-methyl)phenyl)-3-((4-biphenylyl)methyl)-4-methyl-2,5-dioxoimidazolidin-1-yl)acetyl-L-aspartyl-L-phenylglycine] |
| 32 µM | CC1(c2ccc(C(=N)N)cc2)C(=O)N(CC(=O)N[C@@H](CC(=O)O)C(=O)N[C@H](C(=O)O)c2ccccc2)C(=O)N1Cc1ccc(C(F)(F)F)cc1 (mixture of isomers) [Example 15, ((R,S)-4-(4-(Amino-imino-methyl)phenyl)-3-(4-trifluoromethylbenzyl)-4-methyl-2,5-dioxoimidazolidin-1-yl)acetyl-L-aspartyl-L-phenylglycine] |
| 30 µM | CC1(c2ccc(C(=N)N)cc2)C(=O)N(CC(=O)N[C@@H](CC(=O)O)C(=O)N[C@H](C(=O)O)c2ccccc2)C(=O)N1Cc1cc(C(F)(F)F)cc(C(F)(F)F)c1 (mixture of isomers) [Example 16, ((R,S)-4-(4-(Amino-imino-methyl)phenyl)-3-(3,5-bis(trifluoromethyl)benzyl)4-methyl-2,5-dioxoimidazolidin-1-yl)acetyl-L-aspartyl-L-phenylglycine] |
| 79 µM | Cc1c(C)c(C)c(CN2C(=O)N(CC(=O)N[C@@H](CC(=O)O)C(=O)N[C@H](C(=O)O)c3ccccc3)C(=O)C2(C)c2ccc(C(=N)N)cc2)c(C)c1C (mixture of isomers) [Example 17, ((R,S)-4-(4-(Amino-imino-methyl)phenyl)-3-(pentamethylbenzyl)-4-methyl-2,5-dioxoimidazolidin-1-yl)acetyl-L-aspartyl-L-phenylglycine] |
| 0.2 µM | CN(C(=O)CN1C(=O)N(Cc2ccccc2)C(C)(c2ccc(C(=N)N)cc2)C1=O)[C@@H](CC(=O)O)C(=O)N[C@H](C(=O)O)c1ccccc1 (mixture of isomers) [Example 19, ((R,S)-4-(4-(Amino-imino-methyl)phenyl)-3-benzyl-4-methyl-2,5-dioxo-imidazolidin-1-yl)acetyl-L-N-methyl-aspartyl-L-phenylglycine] |
| 22 µM | COC(=O)[C@@H](NC(=O)[C@H](CC(=O)O)NC(=O)CN1C(=O)N(Cc2ccccc2)C(C)(c2ccc(C(=N)N)cc2)C1=O)c1ccccc1 (mixture of isomers) [Example 25, ((R,S)-4-(4-(Amino-imino-methyl)phenyl)-3-benzyl-4-methyl-2,5-dioxo-imidazolidin-1-yl)acetyl-L-aspartyl-L-phenylglycine methyl ester] |
| 175 µM | CC1(c2ccc(C(=N)N)cc2)C(=O)N(CC(=O)NCCC(=O)O)C(=O)N1Cc1ccccc1 (racemic) [Example 34, 3-(((R,S)-4-(4-(Amino-imino-methyl)phenyl)-3-benzyl-4-methyl-2,5-dioxoimidazolidin-1-yl)acetylamino)propionic acid hydrochloride] |
